Data taken from ChEMBL document CHEMBL5532748, “Design, synthesis and antibacterial activity evaluation of ebselen derivatives in NDM-1 producing bacteria” (RSC Med Chem, 2024).
≈ marks a conversion by molar mass, not a printed value. One block for each compound: values may come before it. Calls of active or inactive are those of the source. No cut-off for these calls is given here.

Tests used:
[1] = system: Escherichia coli; assay: Antibacterial activity against Escherichia coli TG-1 transfected with Klebsiella pneumoniae full-length NDM-1 beta-lactamase gene; format: functional
[2] = system: Escherichia coli; assay: Antibacterial activity against Escherichia coli TG-1 transfected with Klebsiella pneumoniae full-length NDM-1 beta lactamase gene incubated in presence of meropenem; format: functional
[3] = system: Escherichia coli; assay: Synergistic antibacterial activity against Escherichia coli TG-1 transfected with Klebsiella pneumoniae full-length NDM-1 beta lactamase gene assessed as fractional inhibitory concentration index in presence of meropenem; format: functional
[4] = system: Escherichia coli; assay: Antibacterial activity against Escherichia coli BJE-4 expressing NDM-1 gene; format: functional
[5] = system: Escherichia coli; assay: Antibacterial activity against Escherichia coli BJE-4 expressing NDM-1 gene in presence of meropenem; format: functional
[6] = system: Escherichia coli; assay: Synergistic antibacterial activity against Escherichia coli BJE-4 expressing NDM-1 gene assessed as fractional inhibitory concentration index in presence of meropenem; format: functional
[7] = target: Metallo-beta-lactamase type 2 (Bacteria, UniProt C7C422); assay: Inhibition of NDM-1 (unknown origin) using nitrocefin as substrate incubated for 15 to 60 mins by absorption based analysis
Chain of Metallo-beta-lactamase type 2 (C7C422 whole entry): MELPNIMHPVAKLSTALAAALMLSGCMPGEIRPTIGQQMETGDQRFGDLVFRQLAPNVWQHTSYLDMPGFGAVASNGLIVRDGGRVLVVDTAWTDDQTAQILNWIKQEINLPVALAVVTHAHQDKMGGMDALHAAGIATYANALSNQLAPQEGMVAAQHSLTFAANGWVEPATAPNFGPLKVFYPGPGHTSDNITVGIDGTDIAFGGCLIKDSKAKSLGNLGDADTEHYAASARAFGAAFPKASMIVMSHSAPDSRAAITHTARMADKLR

[8] = system: HEK-293T; assay: Cytotoxicity against HEK293T cells assessed as reduction in cell viability at 8 to 64 ug/ml incubated for 48 hrs by MTT assay; format: toxicity, cell-based; conditions: human, dose 8-64 µg/ml
[9] = system: Escherichia coli; assay: Antibacterial activity against Escherichia coli producing NDM-1 and CTX-M-15 beta lactamases; format: functional
[10] = system: Escherichia coli; assay: Antibacterial activity against Escherichia coli producing NDM-1, CTX-M-15 and SHV-12 beta lactamases; format: functional
[11] = system: Citrobacter freundii; assay: Antibacterial activity against Citrobacter freundii producing NDM-1 and SHV-12 beta-lactamases; format: functional
[12] = system: Citrobacter freundii; assay: Antibacterial activity against Citrobacter freundii producing NDM-1, CTX-M-3 and KPC-2 beta-lactamases; format: functional
[13] = system: Enterobacter cloacae; assay: Antibacterial activity against Enterobacter cloacae producing NDM-1, CTX-M-14 and TEM-1 beta-lactamases; format: functional
[14] = system: Enterobacter cloacae; assay: Antibacterial activity against Enterobacter cloacae producing NDM-1, IMP-4 and TEM-1 beta-lactamases; format: functional
[15] = system: Escherichia coli; assay: Antibacterial activity against Escherichia coli TG-1; format: functional
[16] = system: Enterobacter cloacae; assay: Antibacterial activity against Enterobacter cloacae producing NDM-1, TEM-1 and SHV-12 beta-lactamases; format: functional
[17] = system: Klebsiella pneumoniae; assay: Antibacterial activity against Klebsiella pneumoniae producing NDM-1, KPC-2 and SHV-12 beta-lactamases; format: functional
[18] = system: Caco-2; assay: Antibacterial activity against Salmonella lomita SL131 infected in human Caco-2 cells assessed as reduction in bacterial survival rate at 64 ug/ml incubated for 6 hrs by agar dilution method; format: functional, cell-based; conditions: Salmonella enterica subsp. enterica serovar Lomita, dose 64.0 µg/ml
[19] = system: Escherichia coli; assay: Antibacterial activity against Escherichia coli producing NDM-1 and CTX-M-15 beta-lactamases in presence of meropenem; format: functional
[20] = system: Escherichia coli; assay: Antibacterial activity against Escherichia coli producing NDM-1, CTX-M-15 and SHV-12 beta-lactamases in presence of meropenem; format: functional
[21] = system: Citrobacter freundii; assay: Antibacterial activity against Citrobacter freundii producing NDM-1 and SHV-12 in presence of meropenem; format: functional
[22] = system: Citrobacter freundii; assay: Antibacterial activity against Citrobacter freundii producing NDM-1, CTX-M-3 and KPC-2 beta-lactamases in presence of meropenem; format: functional
[23] = system: Enterobacter cloacae; assay: Antibacterial activity against Enterobacter cloacae producing NDM-1, CTX-M-14 and TEM-1 beta-lactamases in presence of meropenem; format: functional
[24] = system: Enterobacter cloacae; assay: Antibacterial activity against Enterobacter cloacae producing NDM-1, IMP-4 and TEM-1 beta-lactamases in presence of meropenem; format: functional
[25] = target: Metallo-beta-lactamase type 2 (Bacteria) (UniProt C7C422); assay: Binding affinity to wild type NDM-1 (unknown origin) assessed as change in NDM-1 enzyme complex at 100 uM by ESI-MS analysis
Chain of Metallo-beta-lactamase type 2 (Bacteria) (C7C422 whole entry): as above

[26] = system: Enterobacter cloacae; assay: Antibacterial activity against Enterobacter cloacae producing NDM-1, TEM-1 and SHV-12 beta-lactamase in presence of meropenem; format: functional
[27] = system: Klebsiella pneumoniae; assay: Antibacterial activity against Klebsiella pneumoniae producing NDM-1, KPC-2 and SHV-12 beta-lactamases in presence of meropenem; format: functional
[28] = system: Escherichia coli; assay: Synergistic antibacterial activity against Escherichia coli producing NDM-1 and CTX-M-15 beta-lactamases assessed as fractional inhibitory concentration index in presence of meropenem; format: functional
[29] = system: Escherichia coli; assay: Synergistic antibacterial activity against Escherichia coli producing NDM-1, CTX-M-15 and SHV-12 beta-lactamases assessed as fractional inhibitory concentration index in presence of meropenem; format: functional
[30] = system: Citrobacter freundii; assay: Synergistic antibacterial activity against Citrobacter freundii producing NDM-1 and SHV-12 beta-lactamases assessed as fractional inhibitory concentration index in presence of meropenem; format: functional
[31] = system: Citrobacter freundii; assay: Synergistic antibacterial activity against Citrobacter freundii producing NDM-1, CTX-M-3 and KPC-2 beta-lactamases assessed as fractional inhibitory concentration index in presence of meropenem; format: functional
[32] = system: Enterobacter cloacae; assay: Synergistic antibacterial activity against Enterobacter cloacae producing NDM-1, CTX-M-14 and TEM-1 beta-lactamases assessed as fractional inhibitory concentration index in presence of meropenem; format: functional
[33] = system: Enterobacter cloacae; assay: Synergistic antibacterial activity against Enterobacter cloacae producing NDM-1, IMP-4 and TEM-1 beta-lactamases assessed as fractional inhibitory concentration index in presence of meropenem; format: functional
[34] = system: Enterobacter cloacae; assay: Synergistic antibacterial activity against Enterobacter cloacae producing NDM-1, TEM-1 and SHV-12 beta-lactamases assessed as fractional inhibitory concentration index in presence of meropenem; format: functional
[35] = system: Klebsiella pneumoniae; assay: Synergistic antibacterial activity against Klebsiella pneumoniae producing NDM-1, KPC-2 and SHV-12 beta-lactamases assessed as fractional inhibitory concentration index in presence of meropenem; format: functional
[36] = system: Caco-2; assay: Antibacterial activity against Salmonella lomita SL131 infected in human Caco-2 cells assessed as reduction in bacterial survival rate at 32 to 64 ug/ml incubated for 6 hrs in presence of meropenem by agar dilution method; format: functional, cell-based; conditions: Salmonella enterica subsp. enterica serovar Lomita, dose 32-64 µg/ml

SMILES: COc1ccc(S(=O)(=O)NCCn2[se]c3ccccc3c2=O)cc1
- MIC [1]: > 64 µg/mL
- MIC [2]: ≤ 8 µg/mL
- fractional inhibitory concentration index (FICI) [3]: 0.25
- MIC [4]: > 16 µg/mL
- MIC [5]: 8 µg/mL
- fractional inhibitory concentration index (FICI) [6]: 0.625

SMILES: COC(=O)c1ccc(-n2[se]c3ccccc3c2=O)cc1OC
- MIC [1]: > 64 µg/mL
- MIC [2]: ≤ 8 µg/mL
- fractional inhibitory concentration index (FICI) [3]: 0.25
- MIC [4]: > 16 µg/mL
- MIC [5]: 4 µg/mL
- fractional inhibitory concentration index (FICI) [6]: 0.313
- IC50 [7]: 7.81 µM
- Activity [8]: Non-Toxic

SMILES: C[C@@H](O)[C@H]1C(=O)N2C(C(=O)O)=C(S[C@@H]3CN[C@H](C(=O)N(C)C)C3)[C@H](C)[C@H]12 [MEROPENEM]
- MIC [1]: > 64 µg/mL
- MIC [4]: > 16 µg/mL
- MIC [9]: > 64 µg/mL
- MIC [10]: > 64 µg/mL
- MIC [11]: 64 µg/mL (≈ 167 µM)
- MIC [12]: > 64 µg/mL
- MIC [13]: 64 µg/mL (≈ 167 µM)
- MIC [14]: 64 µg/mL (≈ 167 µM)
- MIC [15]: 0.5 µg/mL (≈ 1.3 µM)
- MIC [16]: 64 µg/mL (≈ 167 µM)
- MIC [17]: > 64 µg/mL
- Activity [18]: inactive

SMILES: CC(C)(C)C(=O)NCCn1[se]c2ccccc2c1=O
- MIC [1]: > 64 µg/mL
- MIC [2]: 64 µg/mL
- fractional inhibitory concentration index (FICI) [3]: 2
- MIC [4]: > 16 µg/mL
- MIC [5]: 8 µg/mL
- fractional inhibitory concentration index (FICI) [6]: 0.625

- MIC [1]: > 64 µg/mL
- MIC [2]: ≤ 8 µg/mL
- MIC [4]: > 16 µg/mL
- MIC [5]: 8 µg/mL
SMILES: CC(C)(C)c1ccc(S(=O)(=O)NCCn2[se]c3ccccc3c2=O)cc1
- fractional inhibitory concentration index (FICI) [3]: 0.25
- fractional inhibitory concentration index (FICI) [6]: 0.625

SMILES: COC(=O)c1cccc(-n2[se]c3ccccc3c2=O)c1
- MIC [1]: > 64 µg/mL
- MIC [2]: ≤ 8 µg/mL
- fractional inhibitory concentration index (FICI) [3]: 0.25
- MIC [4]: > 16 µg/mL
- MIC [5]: 8 µg/mL
- fractional inhibitory concentration index (FICI) [6]: 0.625
- IC50 [7]: 3.63 µM

SMILES: CC(C)(C)OC(=O)NCCCCn1[se]c2ccccc2c1=O
- MIC [1]: > 64 µg/mL
- MIC [2]: 32 µg/mL
- fractional inhibitory concentration index (FICI) [3]: 1
- MIC [4]: > 16 µg/mL
- MIC [5]: 8 µg/mL
- fractional inhibitory concentration index (FICI) [6]: 0.625

SMILES: CC(C)(C)OC(=O)NCCCCCn1[se]c2ccccc2c1=O
- MIC [1]: > 64 µg/mL
- MIC [2]: 16 µg/mL
- fractional inhibitory concentration index (FICI) [3]: 0.5
- MIC [4]: > 16 µg/mL
- MIC [5]: 8 µg/mL
- fractional inhibitory concentration index (FICI) [6]: 0.625

SMILES: CS(=O)(=O)c1ccc(-n2[se]c3ccccc3c2=O)cc1
- MIC [1]: > 64 µg/mL
- MIC [2]: ≤ 8 µg/mL
- fractional inhibitory concentration index (FICI) [3]: 0.25
- MIC [4]: > 16 µg/mL
- MIC [5]: 8 µg/mL
- fractional inhibitory concentration index (FICI) [6]: 0.625
- IC50 [7]: 7.29 µM

SMILES: COC(=O)c1ccc(-n2[se]c3ccccc3c2=O)cc1C
- MIC [1]: > 64 µg/mL
- MIC [2]: 16 µg/mL
- fractional inhibitory concentration index (FICI) [3]: 0.5
- MIC [4]: > 16 µg/mL
- MIC [5]: 8 µg/mL
- fractional inhibitory concentration index (FICI) [6]: 0.625

SMILES: O=c1c2ccccc2[se]n1CCNS(=O)(=O)c1ccc(F)cc1
- MIC [1]: > 64 µg/mL
- MIC [2]: ≤ 8 µg/mL
- fractional inhibitory concentration index (FICI) [3]: 0.25
- MIC [4]: > 16 µg/mL
- MIC [5]: 8 µg/mL
- fractional inhibitory concentration index (FICI) [6]: 0.625

SMILES: CC(C)(C)OC(=O)NCCCCCCn1[se]c2ccccc2c1=O
- MIC [1]: > 64 µg/mL
- MIC [2]: 4 µg/mL
- fractional inhibitory concentration index (FICI) [3]: 0.125
- MIC [4]: > 16 µg/mL
- MIC [5]: 4 µg/mL
- fractional inhibitory concentration index (FICI) [6]: 0.313
- MIC [9]: > 64 µg/mL
- MIC [10]: > 64 µg/mL
- MIC [11]: > 64 µg/mL
- MIC [12]: > 128 µg/mL
- MIC [13]: > 128 µg/mL
- MIC [14]: > 64 µg/mL
- MIC [16]: > 64 µg/mL
- MIC [17]: > 64 µg/mL
- MIC [19]: 8 µg/mL
- MIC [20]: 8 µg/mL
- MIC [21]: 8 µg/mL
- MIC [22]: 16 µg/mL
- MIC [23]: 8 µg/mL
- MIC [24]: 16 µg/mL
- Activity [25]: Active
- MIC [26]: 4 µg/mL
- MIC [27]: 16 µg/mL
- fractional inhibitory concentration index (FICI) [28]: 0.25
- fractional inhibitory concentration index (FICI) [29]: 0.25
- fractional inhibitory concentration index (FICI) [30]: 0.25
- fractional inhibitory concentration index (FICI) [31]: 0.375
- fractional inhibitory concentration index (FICI) [32]: 0.188
- fractional inhibitory concentration index (FICI) [33]: 0.5
- fractional inhibitory concentration index (FICI) [34]: 0.125
- fractional inhibitory concentration index (FICI) [35]: 0.5
- IC50 [7]: 26.8 µM
- Activity [8]: Non-Toxic
- Activity [18]: inactive
- Activity [36]: Active
